# According to patent US20260061084A1, “FIBROBLAST ACTIVATION PROTEIN (FAP) INHIBITORS, FAP CONJUGATES, AND DIAGNOSTIC AND THERAPEUTIC USES THEREOF” (Nuclidium AG, priority 2022, published 2026):
# Assays:
# [1] = tested on: Mice bearing FAP-positive and FAP-negative xenografts; assay: PET/CT imaging: remaining PET activity in the mouse body; format: in vivo
# Description: The mice were euthanized by CO2 at 4 hours p.i., and static PET scans were acquired for 30 min.
# PET/CT images were acquired using β-CUBE PET scanner system (Molecubes, Gent, Belgium), with a spatial resolution of 0.85 mm and an axial field-of-view of 13 cm. Dynamic PET scans were acquired for 60 min. All PET scans were decay corrected and reconstructed into a 192×192×384 matrix by an ordered subsets maximization expectation (OSEM) algorithm using 30 iterations, a voxel size of 400×400×400 μm a 15 min per frame. CT data was used to apply attenuation correction on the PET data. The CT was imaged supine, head first, using the NanoSPECT/CTTM scanner (Bioscan Inc.). Topograms and helical CT scans of the whole mouse were first acquired using the following parameters: X-ray tube current: 177 μA, X-ray tube voltage 45 kVp, 90 seconds and 180 frames per rotation, pitch 1. CT images were reconstructed using CTReco (version r1.146), with a standard filtered back projection algorithm (exact cone beam) and post-filtered (RamLak, 100% frequency cut-off), resulting in a pixel size of 0.2 mm. Co-registered PET/CT images were visualized using maximum intensity projection (MIP) with VivoQuant software (version 4.0).
# [2] = tested on: HT-1080.hFAP (FAP-positive) cells; assay: In vitro cellular uptake (cell surface-bound and internalized fractions); format: cell-based, human; conditions: 37° C., specific uptake (HT-1080.wt subtracted)
# Description: The cellular uptake was studied in vitro using intact cells seeded in 6-well plates overnight. […] At each investigated time point, the medium containing the unbound (free) radiotracer was removed, followed by two washing steps with ice-cold phosphate-buffered saline. The cells were then treated 2×5 min with ice-cold glycine solution (0.05 M, pH 2.8) to detach the cell surface-bound radiotracer (acid released). Afterwards, the cells containing the internalized radiotracer were detached with 1 M NaOH at 37° C. and collected for measurement. The amount of specific cell surface-bound and internalized radiotracer is expressed as percentage of the total applied activity, after subtracting the non-specific values.
# The cells were then preconditioned in 360 μL of assay medium (MEM medium without supplements) at 37° C. for 60 min. 40 μL of a 2 nM solution of ^61Cu-labeled radioligand was added and the cells were incubated at 37° C. The cellular uptake was interrupted at different time points (15 min, 1 hour and 4 hours), by washing twice with ice-cold PBS. Cell surface-bound radioligand was obtained by washing cells twice with ice-cold glycine buffer (pH 2.8), followed by a collection of the internalized fraction with 1 M NaOH. The activity in each fraction was measured in a […] (Cobra II).
# [3] = tested on: HT-1080.hFAP tumor-bearing mice; assay: Biodistribution studies in xenografted mice; format: in vivo; conditions: for Biodistribution: HT-1080.wt: FAP-negative tumor; for Biodistribution: HT-1080.hFAP: FAP-positive tumor
# Description: The tumors were allowed to grow to an average volume of 100-200 mm^3.
# Biodistribution Studies: The xenografted mice were randomized (n=5 per group) and injected intravenously via the tail vein with the ^61Cu-labeled radioligands (100 μL, […], 0.8-1MBq). Mice were euthanized 1 h and 4 h p.i. by CO2 asphyxiation. Organs of interest and blood were collected, rinsed of excess blood, blotted dry, weighed, and counted in a […]. The samples were counted against a suitably diluted aliquot of the injected solution as the standard and the results are expressed as the percentage of the injected activity per gram of tissue (% I.A./g) ±SD.
structure (smiles),measurement,setting,value
CN(C(=O)CCC(=O)N1CCN(C(=O)CCC(C(=O)O)N2CCN(CC(=O)[O-])CCN(CC(=O)[O-])CC2)CC1)c1ccc2nccc(C(=O)NCC(=O)N3CC(F)(F)CC3C#N)c2c1.[61Cu+2] (centres unmarked) [[^61Cu]Cu-NODAGA-4],"Retention in the body (remaining PET activity 4 h p.i.), in words",[1],lowest value
same,Cell surface fraction,[2]; 15 min,1.0 ± 0.7 % of the applied activity
same,Internalized fraction,[2]; 30 min,22.2 ± 7.4 % of the applied activity
same,Cell surface fraction,[2]; 60 min,1.4 ± 0.4 % of the applied activity
same,Internalized fraction,[2]; 60 min,22.2 ± 5.1 % of the applied activity
same,Cell surface fraction,[2]; 240 min,0.9 ± 0.6 % of the applied activity
same,Internalized fraction,[2]; 240 min,17.4 ± 4.4 % of the applied activity
same,Biodistribution: Heart,"[3]; 1 hour p.i., i.v.",0.6 ± 0.0 % I.A./g
same,Biodistribution: Intestine,"[3]; 1 hour p.i., i.v.",0.5 ± 0.2 % I.A./g
same,Biodistribution: Liver,"[3]; 1 hour p.i., i.v.",0.6 ± 0.1 % I.A./g
same,Biodistribution: Lung,"[3]; 1 hour p.i., i.v.",0.9 ± 0.1 % I.A./g
same,Biodistribution: Muscle,"[3]; 1 hour p.i., i.v.",0.8 ± 0.2 % I.A./g
same,Biodistribution: Spleen,"[3]; 1 hour p.i., i.v.",0.4 ± 0.0 % I.A./g
same,Biodistribution: Stomach,"[3]; 1 hour p.i., i.v.",0.5 ± 0.0 % I.A./g
same,Biodistribution: Adrenal,"[3]; 4 hours p.i., i.v.",0.5 ± 0.1 % I.A./g
same,Biodistribution: Blood,"[3]; 4 hours p.i., i.v.",0.4 ± 0.1 % I.A./g
same,Biodistribution: Heart,"[3]; 4 hours p.i., i.v.",0.2 ± 0.0 % I.A./g
same,Biodistribution: Intestine,"[3]; 4 hours p.i., i.v.",0.3 ± 0.1 % I.A./g
same,Biodistribution: Liver,"[3]; 4 hours p.i., i.v.",0.4 ± 0.0 % I.A./g
same,Biodistribution: Lung,"[3]; 4 hours p.i., i.v.",0.3 ± 0.0 % I.A./g
same,Biodistribution: Muscle,"[3]; 4 hours p.i., i.v.",0.4 ± 0.1 % I.A./g
same,Biodistribution: Pancreas,"[3]; 4 hours p.i., i.v.",0.4 ± 0.1 % I.A./g
same,Biodistribution: Spleen,"[3]; 4 hours p.i., i.v.",0.2 ± 0.0 % I.A./g
same,Biodistribution: Stomach,"[3]; 4 hours p.i., i.v.",0.2 ± 0.0 % I.A./g
same,Biodistribution: HT-1080.wt,"[3]; 1 hour p.i., i.v.",1.7 ± 0.2 % I.A./g
same,Biodistribution: HT-1080.wt,"[3]; 4 hours p.i., i.v.",0.6 ± 0.0 % I.A./g
same,Biodistribution: HT-1080.hFAP,"[3]; 1 hour p.i., i.v.",7.4 ± 1.6 % I.A./g
same,Biodistribution: HT-1080.hFAP,"[3]; 4 hours p.i., i.v.",3.0 ± 0.8 % I.A./g
same,"Accumulation in FAP-positive (HT-1080.hFAP) tumor and murine-FAP-positive tissues, such as the bone marrow (bones)","[3]; xenografted mice, 1 h and 4 h p.i.",high accumulation
